Converted amounts (≈) assume the structure as drawn.
System: Escherichia coli
Test: minimum inhibitory concentration (MIC)
Experimental: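 Broth microdilution MIC (Sensititre BOPO7F bovine plate, CLSI methods) of 19 antimicrobials against field isolates of P. multocida, M. haemolytica, H. somni (deep nasopharyngeal swabs) and E. coli, Enterococcus spp. (rectal swabs) from weaned dairy heifers. Incubation 16-24 h at 35 C. MIC is the lowest concentration preventing visible growth. Values with <= or > lie at the tested range limits. Trimethoprim-sulfamethoxazole is given as the trimethoprim component of a 1:19 mixture.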

CS(=O)(=O)c1ccc([C@@H](O)[C@@H](CF)NC(=O)C(Cl)Cl)cc1 [Florfenicol]
Conditions | minimum inhibitory concentration [µg/mL]
isolate (source animal id): 8 | 4 (≈ 11.2 µM)
isolate (source animal id): 9 | > 8
isolate (source animal id): 10 | 4 (≈ 11.2 µM)
isolate (source animal id): 11 | 2 (≈ 5.58 µM)
isolate (source animal id): 12 | > 8
isolate (source animal id): 13 | 8 (≈ 22.3 µM)
isolate (source animal id): 14 | > 8
isolate (source animal id): 15 | > 8
isolate (source animal id): 16 | > 8
isolate (source animal id): 98 | 2 (≈ 5.58 µM)
isolate (source animal id): 99 | 4 (≈ 11.2 µM)
isolate (source animal id): 100 | > 8
isolate (source animal id): 101 | > 8
isolate (source animal id): 102 | > 8
isolate (source animal id): 103 | 4 (≈ 11.2 µM)
isolate (source animal id): 104 | > 8
isolate (source animal id): 105 | > 8
isolate (source animal id): 106 | > 8
isolate (source animal id): 107 | > 8
isolate (source animal id): 108 | > 8
isolate (source animal id): 109 | > 8
isolate (source animal id): 110 | > 8
isolate (source animal id): 111 | 4 (≈ 11.2 µM)
isolate (source animal id): 112 | > 8
isolate (source animal id): 113 | > 8
isolate (source animal id): 114 | 4 (≈ 11.2 µM)
isolate (source animal id): 115 | > 8
isolate (source animal id): 116 | > 8
isolate (source animal id): 117 | > 8
isolate (source animal id): 118 | > 8
isolate (source animal id): 119 | > 8
isolate (source animal id): 120 | > 8
isolate (source animal id): 121 | > 8
isolate (source animal id): 122 | > 8
isolate (source animal id): 123 | > 8
isolate (source animal id): 124 | > 8
isolate (source animal id): 125 | > 8
isolate (source animal id): 126 | > 8
isolate (source animal id): 127 | > 8
isolate (source animal id): 128 | > 8
isolate (source animal id): 129 | > 8
isolate (source animal id): 130 | > 8
isolate (source animal id): 131 | > 8
isolate (source animal id): 132 | > 8
isolate (source animal id): 133 | > 8
isolate (source animal id): 134 | > 8
isolate (source animal id): 135 | 8 (≈ 22.3 µM)
isolate (source animal id): 136 | > 8
isolate (source animal id): 137 | > 8
isolate (source animal id): 138 | > 8
isolate (source animal id): 139 | > 8
isolate (source animal id): 140 | 4 (≈ 11.2 µM)
isolate (source animal id): 141 | > 8
isolate (source animal id): 142 | > 8
isolate (source animal id): 143 | > 8
isolate (source animal id): 144 | > 8
isolate (source animal id): 145 | > 8
isolate (source animal id): 146 | > 8
isolate (source animal id): 147 | > 8
isolate (source animal id): 148 | > 8
isolate (source animal id): 149 | 4 (≈ 11.2 µM)
isolate (source animal id): 150 | > 8
isolate (source animal id): 151 | > 8
isolate (source animal id): 152 | > 8
isolate (source animal id): 153 | > 8
isolate (source animal id): 154 | > 8
isolate (source animal id): 155 | > 8
isolate (source animal id): 156 | > 8
isolate (source animal id): 157 | > 8
isolate (source animal id): 158 | > 8
isolate (source animal id): 159 | > 8
isolate (source animal id): 160 | > 8
isolate (source animal id): 161 | > 8
isolate (source animal id): 162 | > 8
isolate (source animal id): 163 | > 8
isolate (source animal id): 164 | > 8
isolate (source animal id): 165 | > 8
isolate (source animal id): 166 | > 8
isolate (source animal id): 167 | 8 (≈ 22.3 µM)
isolate (source animal id): 168 | 2 (≈ 5.58 µM)
isolate (source animal id): 169 | 8 (≈ 22.3 µM)
isolate (source animal id): 170 | 4 (≈ 11.2 µM)
isolate (source animal id): 171 | 4 (≈ 11.2 µM)
isolate (source animal id): 172 | 2 (≈ 5.58 µM)
isolate (source animal id): 173 | > 8
isolate (source animal id): 174 | 4 (≈ 11.2 µM)
isolate (source animal id): 175 | 8 (≈ 22.3 µM)
isolate (source animal id): 176 | 4 (≈ 11.2 µM)
isolate (source animal id): 177 | > 8
isolate (source animal id): 178 | > 8
isolate (source animal id): 179 | 4 (≈ 11.2 µM)
isolate (source animal id): 180 | 4 (≈ 11.2 µM)
isolate (source animal id): 181 | > 8
isolate (source animal id): 182 | 4 (≈ 11.2 µM)
isolate (source animal id): 183 | > 8
isolate (source animal id): 184 | 4 (≈ 11.2 µM)
isolate (source animal id): 185 | > 8
isolate (source animal id): 186 | 4 (≈ 11.2 µM)
isolate (source animal id): 187 | > 8
isolate (source animal id): 188 | > 8
